This note sets out measurements from ChEMBL document CHEMBL4842385, “Indirubin Derivatives as Dual Inhibitors Targeting Cyclin-Dependent Kinase and Histone Deacetylase for Treating Cancer” (J Med Chem, 2021).

The IC50 is the concentration that inhibits the measured activity by half. A word on the inhibition: it is the share of the control response that was lost under treatment. A low value points to little suppression.

One assay deals with Histone deacetylase 1 (Homo sapiens, UniProt Q13547). As to the kind of experiment: Inhibition of HDAC1 (unknown origin) measured after 30 mins by fluorescence microplate reader assay.
Chain of Histone deacetylase 1 (Q13547 whole entry): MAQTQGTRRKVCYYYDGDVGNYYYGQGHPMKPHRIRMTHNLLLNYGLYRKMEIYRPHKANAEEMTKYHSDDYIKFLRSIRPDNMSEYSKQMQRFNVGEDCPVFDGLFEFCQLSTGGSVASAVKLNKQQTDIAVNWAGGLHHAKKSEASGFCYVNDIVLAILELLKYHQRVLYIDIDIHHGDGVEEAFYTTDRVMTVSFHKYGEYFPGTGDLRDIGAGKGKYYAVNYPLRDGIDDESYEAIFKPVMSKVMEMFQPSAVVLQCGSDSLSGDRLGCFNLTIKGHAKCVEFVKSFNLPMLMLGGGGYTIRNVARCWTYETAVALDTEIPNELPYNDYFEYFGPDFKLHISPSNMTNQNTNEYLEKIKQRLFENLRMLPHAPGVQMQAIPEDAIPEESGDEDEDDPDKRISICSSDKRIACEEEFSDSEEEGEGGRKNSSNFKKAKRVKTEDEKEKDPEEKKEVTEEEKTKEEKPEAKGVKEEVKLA
Another assay addresses Histone deacetylase 2 (Homo sapiens, UniProt Q92769). Nature of the assay: Inhibition of HDAC2 (unknown origin) measured after 30 mins by fluorescence microplate reader assay.
Assay [1] addresses Histone deacetylase 3/Nuclear receptor corepressor 2 (HDAC3/NCoR2) (Homo sapiens, UniProt O15379). Nature of the assay: Inhibition of C-terminal His-tagged recombinant human HDAC3 (1 to 428 residues)/N-terminal GST-tagged recombinant human NCoR2 (395 to 489 residues) co-expressed in baculovirus infected Sf9 cells measured after 30 mins by fluorescence microplate reader assay.

For the next assay, the target named is Histone deacetylase 4 (Homo sapiens, UniProt P56524). As to the kind of experiment: Inhibition of HDAC4 (unknown origin) measured after 30 mins by fluorescence microplate reader assay.
The target in the next assay is T1, Histone deacetylase 7 (Homo sapiens, UniProt Q8WUI4).
T1 sequence (Q8WUI4 whole entry): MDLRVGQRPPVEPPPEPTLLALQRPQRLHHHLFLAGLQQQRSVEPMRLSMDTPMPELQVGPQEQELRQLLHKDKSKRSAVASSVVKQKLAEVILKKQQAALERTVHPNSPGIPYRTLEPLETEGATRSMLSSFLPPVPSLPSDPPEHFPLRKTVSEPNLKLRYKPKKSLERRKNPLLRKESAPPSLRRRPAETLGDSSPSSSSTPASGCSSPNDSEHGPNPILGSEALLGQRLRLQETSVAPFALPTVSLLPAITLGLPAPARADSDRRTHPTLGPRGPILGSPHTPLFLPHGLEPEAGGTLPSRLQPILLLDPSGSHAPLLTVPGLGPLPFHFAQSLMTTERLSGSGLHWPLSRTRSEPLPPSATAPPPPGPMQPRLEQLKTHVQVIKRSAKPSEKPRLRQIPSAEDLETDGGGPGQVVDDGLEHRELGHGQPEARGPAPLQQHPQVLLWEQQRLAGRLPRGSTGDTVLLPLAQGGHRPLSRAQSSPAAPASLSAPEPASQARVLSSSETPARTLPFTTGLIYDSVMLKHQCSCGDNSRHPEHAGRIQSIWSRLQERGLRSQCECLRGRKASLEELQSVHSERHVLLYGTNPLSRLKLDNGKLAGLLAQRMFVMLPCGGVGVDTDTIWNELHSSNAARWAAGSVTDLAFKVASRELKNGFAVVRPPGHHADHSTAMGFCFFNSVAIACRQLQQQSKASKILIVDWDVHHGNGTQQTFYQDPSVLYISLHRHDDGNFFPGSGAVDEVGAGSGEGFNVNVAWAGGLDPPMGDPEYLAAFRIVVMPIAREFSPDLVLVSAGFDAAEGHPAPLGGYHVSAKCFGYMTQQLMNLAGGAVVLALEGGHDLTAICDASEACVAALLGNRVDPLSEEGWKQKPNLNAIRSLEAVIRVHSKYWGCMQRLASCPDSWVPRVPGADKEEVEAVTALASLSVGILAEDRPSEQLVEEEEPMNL
As to the kind of experiment: Inhibition of HDAC7 (unknown origin) measured after 30 mins by fluorescence microplate reader assay.

In another assay the target is T2, Histone deacetylase 11 (Homo sapiens, UniProt Q96DB2).
T2 sequence (Q96DB2 whole entry): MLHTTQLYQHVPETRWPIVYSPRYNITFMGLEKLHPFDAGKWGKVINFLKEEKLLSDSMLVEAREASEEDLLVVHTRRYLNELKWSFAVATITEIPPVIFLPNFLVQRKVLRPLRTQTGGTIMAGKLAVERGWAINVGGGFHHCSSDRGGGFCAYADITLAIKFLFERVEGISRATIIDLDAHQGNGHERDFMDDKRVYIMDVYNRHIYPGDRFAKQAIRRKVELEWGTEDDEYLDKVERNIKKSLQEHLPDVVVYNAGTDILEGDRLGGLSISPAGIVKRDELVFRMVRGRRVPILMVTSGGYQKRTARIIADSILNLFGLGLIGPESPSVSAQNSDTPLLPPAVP
Nature of the assay: Inhibition of recombinant human HDAC11 measured after 30 mins by fluorescence microplate reader assay.

The target of the next assay is CDK2/Cyclin A2 (Homo sapiens, UniProt P24941). As to the kind of experiment: Inhibition of full length human CDK2 (1 to 298 end residues)/N-terminal GST-tagged CyclinA2 (1 to 432 residues) expressed in baculovirus expression system preincubated for 10 mins followed by substrate and ATP addition by mobility shift assay.
The target of a further assay is CDK6/cyclin D3 (Homo sapiens, UniProt Q00534). Nature of the assay: Inhibition of full length human CDK6 (1 to 326 end residues)/N-terminal GST-fusion tagged CyclinD3 (1 to 292 residues) expressed in baculovirus expression system preincubated for 10 mins followed by substrate and ATP addition by mobility shift assay.
Chain of CDK6/cyclin D3 (P30281 whole entry, the tested form may be a part): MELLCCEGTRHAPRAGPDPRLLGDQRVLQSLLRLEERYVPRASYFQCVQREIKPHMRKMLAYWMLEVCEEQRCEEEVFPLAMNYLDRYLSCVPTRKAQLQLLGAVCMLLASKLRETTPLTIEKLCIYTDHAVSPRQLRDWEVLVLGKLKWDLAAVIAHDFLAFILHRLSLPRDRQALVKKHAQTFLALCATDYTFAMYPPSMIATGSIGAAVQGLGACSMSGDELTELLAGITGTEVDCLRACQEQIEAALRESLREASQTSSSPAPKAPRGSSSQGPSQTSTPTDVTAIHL
Chain of CDK6/cyclin D3 (Q00534 whole entry, the tested form may be a part): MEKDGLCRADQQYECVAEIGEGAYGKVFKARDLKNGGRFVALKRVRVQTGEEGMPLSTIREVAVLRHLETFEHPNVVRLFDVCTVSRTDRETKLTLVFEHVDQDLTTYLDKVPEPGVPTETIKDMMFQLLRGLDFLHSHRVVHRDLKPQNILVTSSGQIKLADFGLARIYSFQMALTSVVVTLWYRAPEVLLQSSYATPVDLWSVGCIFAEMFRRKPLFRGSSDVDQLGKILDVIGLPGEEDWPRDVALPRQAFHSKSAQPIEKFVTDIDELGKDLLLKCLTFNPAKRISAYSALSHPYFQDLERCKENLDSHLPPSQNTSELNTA
Assay [2] addresses CDK2/Cyclin A2 (Homo sapiens) (UniProt P24941+P20248). The note with it: dose 100.0 nM, time 10.0 min.
Assay [3] has as its target CDK6/cyclin D3 (Homo sapiens) (UniProt P30281+Q00534). The note with it: dose 100.0 nM, time 10.0 min.

Chain of Histone deacetylase 2 (Q92769 whole entry, the tested form may be a part): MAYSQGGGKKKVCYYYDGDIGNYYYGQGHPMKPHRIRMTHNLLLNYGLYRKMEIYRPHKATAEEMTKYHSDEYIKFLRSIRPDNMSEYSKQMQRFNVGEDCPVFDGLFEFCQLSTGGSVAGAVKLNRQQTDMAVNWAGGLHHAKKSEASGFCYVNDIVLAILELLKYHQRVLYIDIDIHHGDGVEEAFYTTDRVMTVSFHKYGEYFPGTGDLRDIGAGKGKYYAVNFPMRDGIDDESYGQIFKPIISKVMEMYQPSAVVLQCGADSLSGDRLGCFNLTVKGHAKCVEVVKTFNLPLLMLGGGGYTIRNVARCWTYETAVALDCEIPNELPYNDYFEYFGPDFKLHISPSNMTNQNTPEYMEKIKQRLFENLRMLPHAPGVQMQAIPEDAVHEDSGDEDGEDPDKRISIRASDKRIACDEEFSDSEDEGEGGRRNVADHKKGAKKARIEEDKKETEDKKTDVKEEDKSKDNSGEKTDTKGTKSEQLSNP
Chain of Histone deacetylase 3/Nuclear receptor corepressor 2 (HDAC3/NCoR2) (O15379 whole entry, the tested form may be a part): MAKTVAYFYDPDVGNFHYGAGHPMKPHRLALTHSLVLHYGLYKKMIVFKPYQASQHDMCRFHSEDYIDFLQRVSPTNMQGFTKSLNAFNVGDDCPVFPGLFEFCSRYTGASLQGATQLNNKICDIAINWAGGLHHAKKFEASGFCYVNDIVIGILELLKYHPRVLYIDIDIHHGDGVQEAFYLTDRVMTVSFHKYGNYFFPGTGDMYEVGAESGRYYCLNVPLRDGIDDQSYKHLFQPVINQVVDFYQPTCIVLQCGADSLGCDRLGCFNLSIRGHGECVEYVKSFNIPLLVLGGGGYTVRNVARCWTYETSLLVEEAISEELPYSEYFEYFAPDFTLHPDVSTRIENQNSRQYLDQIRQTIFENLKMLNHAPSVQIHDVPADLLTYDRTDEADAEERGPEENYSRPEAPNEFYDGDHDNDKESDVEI
Chain of Histone deacetylase 3/Nuclear receptor corepressor 2 (HDAC3/NCoR2) (Q9Y618 whole entry, further chain, the tested form may be a part): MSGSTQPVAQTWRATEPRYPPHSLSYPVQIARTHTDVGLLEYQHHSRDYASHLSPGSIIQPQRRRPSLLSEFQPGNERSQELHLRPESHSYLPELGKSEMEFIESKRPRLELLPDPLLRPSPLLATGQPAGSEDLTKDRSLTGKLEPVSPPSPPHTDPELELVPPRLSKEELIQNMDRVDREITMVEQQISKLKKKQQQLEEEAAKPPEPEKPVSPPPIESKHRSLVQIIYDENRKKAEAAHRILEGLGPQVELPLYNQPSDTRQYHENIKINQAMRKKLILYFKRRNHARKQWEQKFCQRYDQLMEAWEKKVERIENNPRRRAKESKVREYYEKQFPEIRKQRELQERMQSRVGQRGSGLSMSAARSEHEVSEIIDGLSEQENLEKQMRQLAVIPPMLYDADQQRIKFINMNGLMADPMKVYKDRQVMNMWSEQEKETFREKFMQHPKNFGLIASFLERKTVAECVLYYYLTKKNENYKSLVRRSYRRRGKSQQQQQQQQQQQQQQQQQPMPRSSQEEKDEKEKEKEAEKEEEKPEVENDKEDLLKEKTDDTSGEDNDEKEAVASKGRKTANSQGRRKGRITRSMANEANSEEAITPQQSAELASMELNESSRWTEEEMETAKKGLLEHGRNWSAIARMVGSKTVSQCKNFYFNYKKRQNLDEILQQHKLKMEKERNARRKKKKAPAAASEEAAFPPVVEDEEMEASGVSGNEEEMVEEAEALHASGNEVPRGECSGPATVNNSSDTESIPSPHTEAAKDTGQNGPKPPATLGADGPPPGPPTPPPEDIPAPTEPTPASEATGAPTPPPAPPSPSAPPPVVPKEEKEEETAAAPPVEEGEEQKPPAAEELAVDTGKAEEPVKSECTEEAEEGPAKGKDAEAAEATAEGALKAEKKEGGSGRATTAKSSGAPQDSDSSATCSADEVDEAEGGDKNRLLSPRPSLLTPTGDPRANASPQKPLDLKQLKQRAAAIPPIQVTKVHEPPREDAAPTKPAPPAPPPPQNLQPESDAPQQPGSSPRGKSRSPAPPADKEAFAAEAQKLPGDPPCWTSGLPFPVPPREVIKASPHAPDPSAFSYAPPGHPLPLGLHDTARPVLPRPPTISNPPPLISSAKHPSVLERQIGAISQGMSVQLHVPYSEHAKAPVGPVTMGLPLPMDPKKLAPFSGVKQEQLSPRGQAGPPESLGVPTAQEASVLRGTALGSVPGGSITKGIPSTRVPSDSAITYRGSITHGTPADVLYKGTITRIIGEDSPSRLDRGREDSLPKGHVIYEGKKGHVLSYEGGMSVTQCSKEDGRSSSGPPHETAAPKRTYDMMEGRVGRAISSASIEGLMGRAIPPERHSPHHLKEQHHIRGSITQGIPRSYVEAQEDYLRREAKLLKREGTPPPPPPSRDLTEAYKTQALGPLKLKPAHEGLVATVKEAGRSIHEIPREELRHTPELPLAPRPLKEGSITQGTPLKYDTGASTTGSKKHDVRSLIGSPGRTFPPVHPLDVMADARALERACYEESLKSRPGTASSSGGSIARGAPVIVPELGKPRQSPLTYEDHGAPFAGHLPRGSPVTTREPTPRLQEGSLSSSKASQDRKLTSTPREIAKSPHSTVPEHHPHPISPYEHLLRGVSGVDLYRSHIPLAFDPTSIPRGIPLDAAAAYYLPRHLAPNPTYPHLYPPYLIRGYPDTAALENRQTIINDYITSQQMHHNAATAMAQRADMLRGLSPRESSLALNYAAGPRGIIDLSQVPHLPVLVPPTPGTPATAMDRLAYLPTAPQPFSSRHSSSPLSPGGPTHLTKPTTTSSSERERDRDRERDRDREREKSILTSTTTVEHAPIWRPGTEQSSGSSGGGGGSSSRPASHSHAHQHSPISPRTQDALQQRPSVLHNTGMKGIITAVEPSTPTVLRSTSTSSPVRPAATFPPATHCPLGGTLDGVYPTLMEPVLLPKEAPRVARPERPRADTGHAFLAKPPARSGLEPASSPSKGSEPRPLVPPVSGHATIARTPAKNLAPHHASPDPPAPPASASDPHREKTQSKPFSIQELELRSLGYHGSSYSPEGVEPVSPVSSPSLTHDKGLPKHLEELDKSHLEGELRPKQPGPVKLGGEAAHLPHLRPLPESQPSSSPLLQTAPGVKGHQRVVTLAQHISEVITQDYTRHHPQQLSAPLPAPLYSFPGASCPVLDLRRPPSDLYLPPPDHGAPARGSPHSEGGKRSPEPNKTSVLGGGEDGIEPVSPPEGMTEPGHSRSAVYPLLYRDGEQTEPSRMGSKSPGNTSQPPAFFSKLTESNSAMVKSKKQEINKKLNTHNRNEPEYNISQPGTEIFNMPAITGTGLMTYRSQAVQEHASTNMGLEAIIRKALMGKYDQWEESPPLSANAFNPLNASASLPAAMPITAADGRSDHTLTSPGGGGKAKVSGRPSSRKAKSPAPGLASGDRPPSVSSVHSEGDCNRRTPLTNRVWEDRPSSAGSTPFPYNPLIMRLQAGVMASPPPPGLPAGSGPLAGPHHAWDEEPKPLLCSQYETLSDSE

Turning to `C#CCN1C(=O)/C(=C2\Nc3ccccc3\C2=N/OCCCC(=O)NO)c2ccccc21`, the half-maximal inhibitory concentration (IC50) was > 100 µM against Histone deacetylase 1; > 100 µM at Histone deacetylase 2; > 100 µM in [1]; > 100 µM on Histone deacetylase 4; > 5 µM against Histone deacetylase 7; > 5 µM at Histone deacetylase 11. For the same molecule, the half-inhibitory concentration (IC50) at CDK2/Cyclin A2 and on CDK6/cyclin D3 was > 1 µM in each case. Further, the results for the inhibition in assay [2] and in assay [3] were 4.5% and 0.8%, respectively.
Take `O=C(CCCO/N=C1/C(=C2/C(=O)Nc3ccccc32)Nc2ccccc21)NO`: the IC50 (at Histone deacetylase 1; at Histone deacetylase 2; in assay [1]; against Histone deacetylase 4; on Histone deacetylase 7; on Histone deacetylase 11) was > 5 µM in each case. For the same molecule, the IC50 at CDK2/Cyclin A2 amounted to 0.0609 µM; at CDK6/cyclin D3 it was 0.0272 µM. The inhibition in assay [2] is 66.8%; in [3] it was 76.6%.
As to `O=C(O)CCCO/N=C1/C(=C2/C(=O)Nc3ccccc32)Nc2ccccc21`, the half-maximal inhibitory concentration (IC50) (against Histone deacetylase 1; against Histone deacetylase 2; in assay [1]; against Histone deacetylase 4; on Histone deacetylase 7; at Histone deacetylase 11) was > 5 µM each time. Moreover, the half-inhibitory concentration (IC50) on CDK2/Cyclin A2 stood at 0.119 µM; at CDK6/cyclin D3 it was 0.0682 µM. In addition, the inhibition in [2] stood at 34.9%; in assay [3], 41.3%.
